Measurements from US11911356B2, “Regulation of mutant TERT by BRAF V600E/map kinase pathway through FOS/GABP in human cancer” (THE JOHNS HOPKINS UNIVERSITY, priority 2017, dated 2024).

Legend:
TERT expression = TERT expression by qRT-PCR in human cancer cell lines treated with inhibitors; format: cell-based; details: for TERT expression: 0.5 uM PLX4032, 24 hours
Description: FIG. 2A-2G. BRAF V600E/MAPK pathway regulated TERT expression. (FIG. 2A) TERT expression was analyzed by qRT-PCR in cells treated with 0.5 uM PLX4032 or 0.2 uM AZD6244 for 24 hours (upper panel). The corresponding levels of phosphorylated ERK (p-ERK), total ERK (t-ERK), and beta-actin were detected by Western blotting (lower panel). The relative TERT mRNA expression levels were normalized to the DMSO control group. (FIG. 2B) Luciferase reporting assay of TERT promoter activities in K1 cells treated with DMSO or PLX4032 (0.5 uM). (FIG. 2C, 2D) Specific shRNA against BRAF were used to knock down BRAF in thyroid cancer cell lines BCPAP and K1 and melanoma cell line A375. Scramble shRNA was used as control. Cells were then subjected to Western blotting (FIG. 2C) and qRT-PCR (FIG. 2D). (FIG. 2E) Sequencing of the BRAF exon-15 in the parental and heterozygous BRAF-V600E knock-in SW48 cells. BRAF V600E was knocked in on one allele of BRAF by rAAV technology through homologous recombination and Cre recombinase of the Neo cassette. (FIG. 2F) Western blotting analyses of phosphorylation of ERK (p-ERK), total ERK (t-ERK), BRAF, and beta-actin in the parental and BRAF-V600E knock-in SW48 cells. (FIG. 2G) TERT promoter luciferase reporter assay in SW48 cells with/without BRAF V600E knock-in. **P<0.01, ***P<0.001, by 2-tailed Student's t test. P values are for the comparison of the indicated condition with DMSO (FIG. 2B), scramble (FIG. 2D), or BRAF-WT groups (FIG. 2G). All the values represent the average standard deviation (SD) of triplicate samples from a typical experiment. All the experiments were performed three times with similar results.
(§1) FIG. 3A-3C. MYC regulated TERT expression in a TERT promoter mutation-independent manner. (FIG. 3A) The four indicated cancer cell lines harboring BRAF V600E mutation were treated with 0.5 uM PLX4032 and/or 10 nM MYC-specific siRNA (siMYC) for 24 hours, which were then subjected to Western blotting (upper panel) and qRT-PCR (lower panel). The relative TERT mRNA expression was normalized to the control group. (FIG. 3B, 3C) Parental and BRAF V600E knock-in SW48 cells were treated with control siRNA (siControl) or MYC-specific siRNA (siMYC, 10 nM) for 48 h, followed by Western blotting (FIG. 3B) and luciferase reporter assays (FIG. 3C). *P<0.05, **P<0.01, ***P<0.001, by 2-tailed Student's t test. n.s., not significant. All the values represent the average standard deviation (SD) of triplicate samples from a typical experiment. Similar results were obtained in two additional independent experiments.
FIG. 9A-9B. Summarized effects of PLX4032 (FIG. 9A) and AZD6244 (FIG. 9B) on TERT mRNA expression. Each bar represents the average+SD of the cells with the same genotypes as follows: BRAF-mut and TERT-mut cell lines: BCPAP, K1, OCUT1, A375, and M14; BRAF-mut and TERT-wt cell lines: SK-MEL-1, SK-MEL-3, and RKO; BRAF-wt and TERT-mut cell lines: TPC1, KAT18, C643, CHL-1, SK-MEL-2, and Mewo; BRAF-wt and TERT-wt cell lines: FB1, WRO, and HTORI3. Compared with the corresponding control of DMSO, **P<0.01, ***P<0.001, by independent t-test.
The BRAF V600E-specific inhibitor PLX4032 (#S1267) and the MEK1 inhibitor AZD6244 (#S1008) were purchased from Selleck Chemicals (Houston, TX), dissolved in DMSO with a stock concentration of 10 mM and stored at −20° C. PLX4032 and AZD6244 were used to treat cells for 24 hours at 0.5 μM and 0.2 μM, respectively, where indicated in the manuscript. DMSO was used as the vehicle control.
Total RNA was extracted from cultured cells using the TRIzol reagent (#15596-018; Ambion, Life Technologies, Carlsbad, CA) and reverse-transcribed to cDNA using the SuperScript III First-Strand Synthesis System (#18080-051; Invitrogen, Life Technologies, Carlsbad, CA). Gene expression was analyzed in triplicate using FastStart Universal SYBR Green Master with ROX (#04913850001; Roche Applied Science, Indianapolis, IN) on the Applied Biosystems 7900HT Fast Real-Time PCR System. […]

MYC expression = test: Western blotting of MYC in BRAF V600E cancer cell lines; format: cell-based, human; details: four cancer cell lines harboring BRAF V600E; 0.5 uM PLX4032, 24 hours
Description: as §1
Cells were lysed in the RIPA buffer (#sc-24948; Santa Cruz Biotechnology, Santa Cruz, CA) with protease inhibitor cocktail (#P8340; Sigma-Aldrich) and phosphatase inhibitor cocktail (#P0044; Sigma-Aldrich) and Western blotting analysis was performed as we previously described^54. […] Signals were detected by SuperSignal™ West Pico PLUS Chemiluminescent Substrate (#34579; Thermo Fisher Scientific). […]

CCCS(=O)(=O)Nc1ccc(F)c(C(=O)c2c[nH]c3ncc(-c4ccc(Cl)cc4)cc23)c1F [PLX4032]
TERT expression (TERT expression; RKO and SK-MEL-3 cells, wild-type TERT promoter): moderate level | TERT expression (TERT expression; all the cells harboring BRAF mutation (FIG. 3A)): decreased TERT expression | TERT expression after siRNA knockdown of MYC (TERT expression; cells harboring TERT promoter mutations, 0.5 uM PLX4032 with 10 nM siMYC, 24 hours): could further inhibit TERT expression | TERT expression (TERT expression; cells harboring both BRAF V600E and TERT promoter mutations): dramatically inhibited TERT expression | TERT expression (TERT expression; cells harboring the wild-type TERT promoter): limited effect | TERT expression (TERT expression; cells harboring wild-type BRAF): no inhibitory effect | TERT expression (TERT expression; wild-type BRAF cell lines, especially TERT mutant cells (KAT18, C643 and CHL-1)): increase in TERT expression | MYC expression (MYC expression): suppressed MYC expression
